What all share (test): cell-free TR-FRET co-activator peptide displacement
Common to all, as to format: binding
Holding throughout (conditions): read-out: EC50

Assay [1] deals with T1, estrogen-related receptor α (ERRα) (Homo sapiens, UniProt P11474).
T1 sequence (P11474 193-423 limits assumed): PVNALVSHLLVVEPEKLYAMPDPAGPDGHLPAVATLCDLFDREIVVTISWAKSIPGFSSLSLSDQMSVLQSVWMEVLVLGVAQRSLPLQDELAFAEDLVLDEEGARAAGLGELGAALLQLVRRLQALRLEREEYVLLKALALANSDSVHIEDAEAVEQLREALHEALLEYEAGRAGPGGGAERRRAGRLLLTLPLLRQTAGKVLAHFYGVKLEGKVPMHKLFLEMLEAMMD

The target of the next assay is T2, ERα (Homo sapiens, UniProt P03372).
T2 sequence (P03372 311-547 limits assumed): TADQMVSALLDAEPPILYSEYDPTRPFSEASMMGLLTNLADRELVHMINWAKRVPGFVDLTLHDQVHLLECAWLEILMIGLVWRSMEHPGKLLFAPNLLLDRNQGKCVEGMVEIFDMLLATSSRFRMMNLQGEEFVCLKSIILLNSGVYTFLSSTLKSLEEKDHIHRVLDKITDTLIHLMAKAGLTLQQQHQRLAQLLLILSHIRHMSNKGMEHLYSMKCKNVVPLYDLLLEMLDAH

The target in the next assay is ERβ (Homo sapiens, UniProt Q92731).

Drawing on article PMC2918268 (Biochemical pharmacology, 2010), this text covers IC50 for one molecule.

Sequence of ERβ (Q92731 264-498 limits assumed): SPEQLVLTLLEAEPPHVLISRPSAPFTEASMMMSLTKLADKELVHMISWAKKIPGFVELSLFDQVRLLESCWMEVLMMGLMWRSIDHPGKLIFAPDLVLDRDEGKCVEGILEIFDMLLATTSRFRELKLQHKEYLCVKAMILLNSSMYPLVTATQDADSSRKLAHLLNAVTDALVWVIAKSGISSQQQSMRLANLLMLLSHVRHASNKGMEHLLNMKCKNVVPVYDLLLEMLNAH

Consider `C[C@@H]1Cc2cc(O)ccc2[C@H]2CC[C@]3(C)/C(=C/COCCN(C)C)CC[C@H]3[C@H]12` [SR16388, 21-[2-(N,N-dimethylamino)ethyl]oxy-7a-methyl-19-norpregna-1,3,5(10),17(20)-tetraen-3-ol], for which the IC50 in assay [1] is 700 ± 100 nM; at ERα, 200 ± 200 nM; at ERβ it was 500 ± 200 nM.
